Patent publication US20240228506A1, “RIPK1 INHIBITORS AND METHODS OF USE” (Merck Sharp & Dohme LLC, priority 2021, published 2024)

Biological target: T1, GST-RIPK1 (recombinant GST-RIPK1 kinase domain (residues 1-327)) (Homo sapiens, UniProt Q13546)
T1 construct: recombinant GST-RIPK1 kinase domain (residues 1-327) enzyme; made in house; host or cells: baculovirus-transfected Sf21 insect cells
T1 sequence (Q13546 1-327): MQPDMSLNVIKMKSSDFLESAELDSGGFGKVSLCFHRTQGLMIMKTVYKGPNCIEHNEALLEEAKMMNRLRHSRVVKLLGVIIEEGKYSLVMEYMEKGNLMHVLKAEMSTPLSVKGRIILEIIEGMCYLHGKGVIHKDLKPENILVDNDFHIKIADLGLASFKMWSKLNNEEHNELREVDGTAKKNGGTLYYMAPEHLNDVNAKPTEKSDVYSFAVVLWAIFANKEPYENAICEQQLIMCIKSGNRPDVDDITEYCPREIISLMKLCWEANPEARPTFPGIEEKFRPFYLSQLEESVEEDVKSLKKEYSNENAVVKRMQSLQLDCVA
Experiment: RIPK1-ADP-Glo enzymatic assay
Type: biochemical
Settings: 25 nM GST-RIPK1, 300 μM ATP, 3 μM dephosphorylated-MBP; 30 minutes pre-incubation, 150 minutes reaction; ten-point titration
Method in brief: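 Ten-point 1:3 titrations from 100000 nM, 1% DMSO, were preincubated 30 min with 25 nM GST-RIPK1 (1-327) before starting with 300 μM ATP plus 3 μM dephosphorylated MBP; 150 min reaction. ADP-Glo luminescence measured ATP-to-ADP conversion; EC50 by four-parameter sigmoidal regression.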

SMILES	IC50 [nM]
COc1cc(N2CCC(F)(C(=O)N3C[C@@H]4C[C@H]3c3cncc(C#N)c3O4)CC2)ncn1 [Compound 1-53, (2S,5S)-4-(4-fluoro-1-(6-methoxypyrimidin-4-yl)piperidine-4-carbonyl)-2,3,4,5-tetrahydro-2,5-methanopyrido[3,4-f][1,4]oxazepine-9-carbonitrile]	226
N#Cc1cncc2c1O[C@H]1C[C@@H]2N(C(=O)C2(F)CCN(C(=O)c3ccccc3)CC2)C1 [Compound 1-54, (2S,5S)-4-(1-benzoyl-4-fluoropiperidine-4-carbonyl)-2,3,4,5-tetrahydro-2,5-methanopyrido[3,4-f][1,4]oxazepine-9-carbonitrile]	116
N#Cc1cncc2c1O[C@H]1C[C@@H]2N(C(=O)C2(F)CCN(c3ccnc4c(F)cnn34)CC2)C1 [Compound 1-55, (2S,5S)-4-(4-fluoro-1-(3-fluoropyrazolo[1,5-a]pyrimidin-7-yl)piperidine-4-carbonyl)-2,3,4,5-tetrahydro-2,5-methanopyrido[3,4-f][1,4]oxazepine-9-carbonitrile]	18
COc1ccnc(N2CCC(F)(C(=O)N3C[C@@H]4C[C@H]3c3cncc(C#N)c3O4)CC2)n1 [Compound 1-56, (2S,5S)-4-(4-fluoro-1-(4-methoxypyrimidin-2-yl)piperidine-4-carbonyl)-2,3,4,5-tetrahydro-2,5-methanopyrido[3,4-f][1,4]oxazepine-9-carbonitrile]	41
N#Cc1cncc2c1O[C@H]1C[C@@H]2N(C(=O)C2(F)CCN(c3ncnc4scnc34)CC2)C1 [Compound 1-57, (2S,5S)-4-(4-fluoro-1-(thiazolo[5,4-d]pyrimidin-7-yl)piperidine-4-carbonyl)-2,3,4,5-tetrahydro-2,5-methanopyrido[3,4-f][1,4]oxazepine-9-carbonitrile]	35
N#Cc1cncc2c1O[C@H]1C[C@@H]2N(C(=O)C2(F)CCN(c3nccn4ncnc34)CC2)C1 [Compound 1-58, (2S,5S)-4-(1-([1,2,4]triazolo[1,5-a]pyrazin-8-yl)-4-fluoropiperidine-4-carbonyl)-2,3,4,5-tetrahydro-2,5-methanopyrido[3,4-f][1,4]oxazepine-9-carbonitrile]	74
CC1OCCC1(C)C(=O)N1C[C@@H]2C[C@H]1c1cncc(C#N)c1O2 (stereo partly drawn) [Compound 1-59, (2S,5S)-4-(2,3-dimethyltetrahydrofuran-3-carbonyl)-2,3,4,5-tetrahydro-2,5-methanopyrido[3,4-f][1,4]oxazepine-9-carbonitrile]	587
N#Cc1cncc2c1O[C@H]1C[C@@H]2N(C(=O)C2(C(F)F)CCCO2)C1 (stereo partly drawn) [Compound 1-60, (2S,5S)-4-(2-(difluoromethyl)tetrahydro-furan-2-carbonyl)-2,3,4,5-tetrahydro-2,5-methanopyrido[3,4-f][1,4]oxazepine-9-carbonitrile]	230
N#Cc1cncc2c1O[C@H]1C[C@@H]2N(C(=O)C23CCC(CC2)CC3)C1 [Compound 1-61, (2S,5S)-4-(bicyclo[2.2.2]octane-1-carbonyl)-2,3,4,5-tetrahydro-2,5-methanopyrido[3,4-f][1,4]oxazepine-9-carbonitrile]	34
N#Cc1cncc2c1O[C@H]1C[C@@H]2N(C(=O)C23CCC(F)(CC2)CC3)C1 [Compound 1-63, (2S,5S)-4-(4-fluorobicyclo[2.2.2]octane-1-carbonyl)-2,3,4,5-tetrahydro-2,5-methanopyrido[3,4-f][1,4]oxazepine-9-carbonitrile]	58
COC1(C(=O)N2C[C@@H]3C[C@H]2c2cncc(C#N)c2O3)CCCC1 [Compound 1-65, (2S,5S)-4-(1-methoxycyclopentane-1-carbonyl)-2,3,4,5-tetrahydro-2,5-methanopyrido[3,4-f][1,4]oxazepine-9-carbonitrile]	76
N#Cc1cncc2c1O[C@H]1C[C@@H]2N(C(=O)C23CC(C(F)(F)F)(CO2)C3)C1 [Compound 1-66, (2S,5S)-4-(4-(trifluoromethyl)-2-oxabicyclo[2.1.1]hexane-1-carbonyl)-2,3,4,5-tetrahydro-2,5-methanopyrido[3,4-f][1,4]oxazepine-9-carbonitrile]	514
CC(C)(Cc1ccccc1)C(=O)N1C[C@@H]2C[C@H]1c1cncc(C#N)c1O2 [Compound 1-68, (2S,5S)-4-(2,2-dimethyl-3-phenylpropanoyl)-2,3,4,5-tetrahydro-2,5-methanopyrido[3,4-f][1,4]oxazepine-9-carbonitrile]	259
CC1(C(=O)N2C[C@@H]3C[C@H]2c2cncc(C#N)c2O3)CC2CCC1C2 (stereo partly drawn) [Compound 1-69, (2S,5S)-4-(2-methylbicyclo[2.2.1]heptane-2-carbonyl)-2,3,4,5-tetrahydro-2,5-methanopyrido[3,4-f][1,4]oxazepine-9-carbonitrile]	77
N#Cc1cncc2c1O[C@H]1C[C@@H]2N(C(=O)C2(F)CCN(c3cc(-c4ccccc4)ncn3)CC2)C1 [Compound 1-70, (2S,5S)-4-(4-fluoro-1-(6-phenylpyrimidin-4-yl)piperidine-4-carbonyl)-2,3,4,5-tetrahydro-2,5-methanopyrido[3,4-f][1,4]oxazepine-9-carbonitrile]	35
N#Cc1cncc2c1O[C@H]1C[C@@H]2N(C(=O)C2(F)CCN(c3cc(C4CC4)ncn3)CC2)C1 [Compound 1-71, (2S,5S)-4-(1-(6-cyclopropylpyrimidin-4-yl)-4-fluoropiperidine-4-carbonyl)-2,3,4,5-tetrahydro-2,5-methanopyrido[3,4-f][1,4]oxazepine-9-carbonitrile]	232
N#Cc1cncc2c1O[C@H]1C[C@@H]2N(C(=O)C2(F)CCN(c3ccnc(Cl)c3)CC2)C1 [Compound 1-72, (2S,5S)-4-(1-(2-chloropyridin-4-yl)-4-fluoropiperidine-4-carbonyl)-2,3,4,5-tetrahydro-2,5-methanopyrido[3,4-f][1,4]oxazepine-9-carbonitrile]	35
CC12COC(C(=O)N3C[C@@H]4C[C@H]3c3cncc(C#N)c3O4)(C1)C2 [Compound 1-73, (2S,5S)-4-(4-methyl-2-oxabicyclo[2.1.1]hexane-1-carbonyl)-2,3,4,5-tetrahydro-2,5-methanopyrido[3,4-f][1,4]oxazepine-9-carbonitrile]	501
CCC1(C(=O)N2C[C@@H]3C[C@H]2c2cncc(C#N)c2O3)CC1 [Compound 1-74, (2S,5S)-4-(1-ethylcyclopropane-1-carbonyl)-2,3,4,5-tetrahydro-2,5-methanopyrido[3,4-f][1,4]oxazepine-9-carbonitrile]	347
N#Cc1cncc2c1O[C@H]1C[C@@H]2N(C(=O)C2(C(F)(F)F)CC2)C1 [Compound 1-75, (2S,5S)-4-(1-(trifluoromethyl)cyclopropane-1-carbonyl)-2,3,4,5-tetrahydro-2,5-methanopyrido[3,4-f][1,4]oxazepine-9-carbonitrile]	545
CC1(C(=O)N2C[C@@H]3C[C@H]2c2cncc(C#N)c2O3)CC1 [Compound 1-76, (2S,5S)-4-(1-methylcyclopropane-1-carbonyl)-2,3,4,5-tetrahydro-2,5-methanopyrido[3,4-f][1,4]oxazepine-9-carbonitrile]	780
CC1(C(=O)N2C[C@@H]3C[C@H]2c2cncc(C#N)c2O3)CC(F)(F)C1 [Compound 1-77, (2S,5S)-4-(3,3-difluoro-1-methylcyclobutane-1-carbonyl)-2,3,4,5-tetrahydro-2,5-methanopyrido[3,4-f][1,4]oxazepine-9-carbonitrile]	139
N#Cc1cncc2c1O[C@H]1C[C@@H]2N(C(=O)C23CCCCC2C3)C1 (stereo partly drawn) [Compound 1-78, (2S,5S)-4-(bicyclo[4.1.0]heptane-1-carbonyl)-2,3,4,5-tetrahydro-2,5-methanopyrido[3,4-f][1,4]oxazepine-9-carbonitrile]	77
CC(C)C1(C(=O)N2C[C@@H]3C[C@H]2c2cncc(C#N)c2O3)CC1 [Compound 1-79, (2S,5S)-4-(1-isopropylcyclopropane-1-carbonyl)-2,3,4,5-tetrahydro-2,5-methanopyrido[3,4-f][1,4]oxazepine-9-carbonitrile]	446
COc1cnc(N2CCC(F)(C(=O)N3C[C@@H]4C[C@H]3c3cncc(C#N)c3O4)CC2)nc1 [Compound 1-80, (2S,5S)-4-(4-fluoro-1-(5-methoxypyrimidin-2-yl)piperidine-4-carbonyl)-2,3,4,5-tetrahydro-2,5-methanopyrido[3,4-f][1,4]oxazepine-9-carbonitrile]	332
N#Cc1cncc2c1O[C@H]1C[C@@H]2N(C(=O)C23CCCC2C3(F)F)C1 (stereo partly drawn) [Compound 1-81, (2S,5S)-4-(6,6-difluorobicyclo[3.1.0]hexane-1-carbonyl)-2,3,4,5-tetrahydro-2,5-methanopyrido[3,4-f][1,4]oxazepine-9-carbonitrile]	93
Cc1ncc2c(c1C#N)O[C@H]1C[C@@H]2N(C(=O)C23CCC(C(F)(F)F)(CC2)C3)C1 [Compound 1-82, (2S,5S)-8-methyl-4-(4-(trifluoromethyl)bicyclo[2.2.1]heptane-1-carbonyl)-2,3,4,5-tetrahydro-2,5-methanopyrido[3,4-f](1,4]oxazepine-9-carbonitrile]	13
